ChEMBL document CHEMBL4483862, “Open-source discovery of chemical leads for next-generation chemoprotective antimalarials” (2018)

Test system: Plasmodium berghei
Assay: Luciferase/luciferin-expressing antifolate-resistant parasites were used to infect a culture of HepG2 cells that were pre-incubated with compounds. Infected hepatocytes emit light due to the luciferase reaction. Assay results are presented as the percent inhibition of light emission compared to control. […]
Type: functional
Conditions: sporozoite; for IC90: read-out: LUCIFERASE INFECTION ASSAY - IC90
[1] = PBLUC_HILL_SLOPE 1.24, PBLUC_R_SQUARED 0.639, read-out: LUCIFERASE INFECTION ASSAY - IC50

Row | SMILES | IC90 | also measured
1 | Cc1cc(C(=O)Nc2ccc(Cl)cc2)c(C)n1-c1ccccc1 | 0.729 µM | IC50 (PBLUC_HILL_SLOPE 1.26, PBLUC_R_SQUARED 0.88, read-out: LUCIFERASE INFECTION ASSAY - IC50): 0.128 µM
2 | C=CCn1c(C)cc(C(=O)CSc2ccc(NC(C)=O)cc2)c1C | 2.85 µM | IC50 (PBLUC_HILL_SLOPE 1.26, 1.79, PBLUC_R_SQUARED 0.402, 0.760, read-out: LUCIFERASE INFECTION ASSAY - IC50): 1.34 µM
3 | O=C(COc1ccc(F)cc1)N1CCC(Cc2ccccc2)CC1 | > 10.1 µM | IC50 (PBLUC_HILL_SLOPE 1.27, PBLUC_R_SQUARED 0.405, read-out: LUCIFERASE INFECTION ASSAY - IC50): 4.23 µM
4 | CC1CN(C(=O)c2ccc(S(=O)(=O)Nc3ccccc3F)cc2)CC(C)O1 (configuration not stated) | 5.97 µM | IC50 (PBLUC_HILL_SLOPE 1.2, PBLUC_R_SQUARED 0.687, read-out: LUCIFERASE INFECTION ASSAY - IC50): 0.955 µM
5 | CSc1nc(N2CCNCC2)c2sc3c(c2n1)CCCC3 | > 10.3 µM | IC50 (PBLUC_HILL_SLOPE 1.21, PBLUC_R_SQUARED 0.0625, read-out: LUCIFERASE INFECTION ASSAY - IC50): > 10.3 µM
6 | CS(=O)(=O)c1nc2ccccc2n1Cc1cc(=O)n2ccccc2n1 | > 10 µM | IC50 (PBLUC_HILL_SLOPE 1.24, PBLUC_R_SQUARED 0.679, read-out: LUCIFERASE INFECTION ASSAY - IC50): 5.51 µM
7 | CNc1nc2cnc(Nc3ccc(C(F)(F)F)cc3)cc2n1CC1CC1 | > 10 µM | IC50 (PBLUC_HILL_SLOPE 1.2, PBLUC_R_SQUARED 0.377, read-out: LUCIFERASE INFECTION ASSAY - IC50): 2.12 µM
8 | CSc1nnc(-c2ccc(C(C)(C)C)cc2)n1-c1ccc(Cl)cc1 | > 9.22 µM | IC50 (PBLUC_HILL_SLOPE 1.19, PBLUC_R_SQUARED 0.789, read-out: LUCIFERASE INFECTION ASSAY - IC50): > 9.22 µM
9 | COC(=O)CSCCc1nc(-c2ccc(C(F)(F)F)cc2)cs1 | 8.8 µM | IC50 (PBLUC_HILL_SLOPE 1.19, PBLUC_R_SQUARED 0.68, read-out: LUCIFERASE INFECTION ASSAY - IC50): 1.39 µM
10 | COc1cc2c(cc1OCC(=O)Nc1ccccc1Cl)C=CC(C)(C)O2 | > 8.83 µM | IC50 (PBLUC_HILL_SLOPE 1.25, PBLUC_R_SQUARED 0.511, read-out: LUCIFERASE INFECTION ASSAY - IC50): 4.17 µM
11 | CN1/C(=C/C=C2c3ccccc3-c3ccccc32)C=Cc2ccccc21 | > 9.9 µM | IC50 (PBLUC_HILL_SLOPE 1.22, PBLUC_R_SQUARED 0.219, read-out: LUCIFERASE INFECTION ASSAY - IC50): 8.03 µM
12 | CCC(C)c1ccc(S(=O)(=O)N(Cc2ccc(C(=O)NC3CC3)cc2)C2CC2)cc1 (configuration not stated) | 2.3 µM | IC50 (PBLUC_HILL_SLOPE 1.25, PBLUC_R_SQUARED 0.781, read-out: LUCIFERASE INFECTION ASSAY - IC50): 0.394 µM
13 | COc1cc(CCC2CCN(CC(=O)c3c(N)n(C)c(=O)n(C)c3=O)CC2)cc(OC)c1 | > 10 µM | IC50 (PBLUC_HILL_SLOPE 1.27, PBLUC_R_SQUARED 0.409, read-out: LUCIFERASE INFECTION ASSAY - IC50): 5.13 µM
14 | COc1cc(-c2nc3ccc(NC(=O)c4cccnc4)cn3n2)cc(OC)c1OC | > 10 µM | IC50 (PBLUC_HILL_SLOPE 1.26, PBLUC_R_SQUARED 0.59, read-out: LUCIFERASE INFECTION ASSAY - IC50): 6.96 µM
15 | COc1ccc(-c2cc(NC(=O)C3CCN(C(=O)C(C)C)CC3)ccc2OC(F)F)cc1 | > 10 µM | IC50 (PBLUC_HILL_SLOPE 1.23, PBLUC_R_SQUARED 0.265, read-out: LUCIFERASE INFECTION ASSAY - IC50): 3.95 µM
16 | O=C(O)C1C2C=CC(O2)C1C(=O)Nc1ccc(OC(F)(F)F)cc1 (configuration not stated) | > 9.61 µM | IC50 (PBLUC_HILL_SLOPE 1.22, PBLUC_R_SQUARED 0.106, read-out: LUCIFERASE INFECTION ASSAY - IC50): > 9.61 µM
17 | Cc1ccc(S(=O)(=O)N(Cc2ccc(C(=O)NC3CC3)cc2)C2CC2)c(C)c1 | 0.498 µM | IC50 (PBLUC_HILL_SLOPE 1.22, PBLUC_R_SQUARED 0.762, read-out: LUCIFERASE INFECTION ASSAY - IC50): 0.0818 µM
18 | CSc1sc(C(=O)N/N=C/c2ccccc2)c2c1C1(CCC2)SCCS1 | > 7.85 µM | IC50 (PBLUC_HILL_SLOPE 1.27, PBLUC_R_SQUARED 0.257, read-out: LUCIFERASE INFECTION ASSAY - IC50): 5.56 µM
19 | COc1cc(OC)cc(-c2cc3c(Nc4ccc5c(c4)OCO5)nccc3[nH]2)c1 | 6.69 µM | IC50 (PBLUC_HILL_SLOPE 1.19, PBLUC_R_SQUARED 0.67, read-out: LUCIFERASE INFECTION ASSAY - IC50): 1.06 µM
20 | O=C1C2=C(Nc3ccccc3SC2c2ccccc2F)c2ccccc21 (configuration not stated) | 2.61 µM | IC50 (PBLUC_HILL_SLOPE 1.25, PBLUC_R_SQUARED 0.725, read-out: LUCIFERASE INFECTION ASSAY - IC50): 0.454 µM
21 | COc1ccc(-c2nc(C(=O)Nc3ccccc3N3CCN(C)CC3)cs2)cc1OC | > 10 µM | IC50 [1]: 2.33 µM

Row | SMILES | IC90 | also measured
22 | c1ccc(CCCNc2nnnn2-c2ccccc2)cc1 | > 10 µM | IC50 (PBLUC_HILL_SLOPE 1.25, PBLUC_R_SQUARED 0.199, read-out: LUCIFERASE INFECTION ASSAY - IC50): 6.08 µM
23 | COc1ccccc1-c1cc(C(=O)NCC(C)c2ccccc2)no1 (configuration not stated) | > 10 µM | IC50 (PBLUC_HILL_SLOPE 1.24, PBLUC_R_SQUARED 0.652, read-out: LUCIFERASE INFECTION ASSAY - IC50): 3.42 µM
24 | Cc1ccc(Cn2ccs/c2=N/C(=O)c2cc3c(s2)CCCCC3)cc1 | 0.491 µM | IC50 (PBLUC_HILL_SLOPE 1.2, PBLUC_R_SQUARED 0.823, read-out: LUCIFERASE INFECTION ASSAY - IC50): 0.0784 µM
25 | Cc1oc(-c2ccc(Cl)cc2)cc1C(=O)Nc1cc(-c2cc(C(C)(C)C)oc2C)nn1-c1cc(C(F)(F)F)cc(C(F)(F)F)c1 | > 5.08 µM | IC50 (PBLUC_HILL_SLOPE 1.26, PBLUC_R_SQUARED 0.137, read-out: LUCIFERASE INFECTION ASSAY - IC50): > 5.08 µM
26 | CCc1ccc(S(=O)(=O)Nc2cc(Sc3ccc(C)cc3)c(O)c3ccccc23)cc1 | > 10 µM | IC50 (PBLUC_HILL_SLOPE 1.24, PBLUC_R_SQUARED 0.466, read-out: LUCIFERASE INFECTION ASSAY - IC50): 5.98 µM
27 | CCc1ccccc1Nc1nc(N)nc(CN2CCc3ccccc32)n1 | > 10 µM | IC50 (PBLUC_HILL_SLOPE 1.23, PBLUC_R_SQUARED 0.247, read-out: LUCIFERASE INFECTION ASSAY - IC50): 5.31 µM
28 | O=C(NC12CC3CC(CC(C3)C1)C2)c1ccc(=O)n(Cc2ccccc2)n1 | > 10 µM | IC50 (PBLUC_HILL_SLOPE 1.2, PBLUC_R_SQUARED 0.803, read-out: LUCIFERASE INFECTION ASSAY - IC50): 5.96 µM
29 | NC(=O)c1ccc(CN(C2CC2)S(=O)(=O)c2ccc3c(c2)CCC3)cc1 | > 10 µM | IC50 (PBLUC_HILL_SLOPE 1.27, PBLUC_R_SQUARED 0.0564, read-out: LUCIFERASE INFECTION ASSAY - IC50): > 10 µM
30 | CC(C)(C)c1ccc(NC(=O)c2cc(-c3ccccc3)ncn2)cc1 | > 9.96 µM | IC50 (PBLUC_HILL_SLOPE 1.26, PBLUC_R_SQUARED 0.612, read-out: LUCIFERASE INFECTION ASSAY - IC50): 2.29 µM
31 | CC(=O)N(c1nc(/C=C/C(=O)c2cccc(Br)c2)cs1)c1ccc(F)cc1F | > 10 µM | IC50 (PBLUC_HILL_SLOPE 1.24, PBLUC_R_SQUARED 0.477, read-out: LUCIFERASE INFECTION ASSAY - IC50): 8.87 µM
32 | c1ccc(-c2nn(-c3ccccc3)cc2CSc2nncs2)cc1 | > 10 µM | IC50 [1]: 5.72 µM
33 | O=C(Nc1ccccc1)Nc1ccc2cc(C(=O)c3ccccc3O)cnc2c1 | 4.81 µM | IC50 (PBLUC_HILL_SLOPE 1.23, 8.91, PBLUC_R_SQUARED 0.971, 0.189, read-out: LUCIFERASE INFECTION ASSAY - IC50): 3.52 µM
34 | O=C(Nc1ccc(N2CCCCC2)c(C(F)(F)F)c1)c1ccc(-n2nncc2-c2ccc(Cl)cc2)cc1 | > 10 µM | IC50 (PBLUC_HILL_SLOPE 1.22, PBLUC_R_SQUARED 0.481, read-out: LUCIFERASE INFECTION ASSAY - IC50): 4.69 µM
35 | Cc1ccc(CSCCNC(=O)c2ccc3c[nH]nc3c2)cc1 | > 10 µM | IC50 (PBLUC_HILL_SLOPE 1.22, PBLUC_R_SQUARED 0.508, read-out: LUCIFERASE INFECTION ASSAY - IC50): 4.61 µM
36 | Cc1cccc(Cn2nc(C(C)(C)C)cc2C(=O)Nc2cccc(OC(F)(F)F)c2)c1 | > 7.65 µM | IC50 (PBLUC_HILL_SLOPE 1.23, PBLUC_R_SQUARED 0.161, read-out: LUCIFERASE INFECTION ASSAY - IC50): > 7.65 µM
37 | Cc1cc2c(cc1C)NC(c1ccc(Br)cc1)C1C(=O)CCCC1=N2 (configuration not stated) | > 8.31 µM | IC50 (PBLUC_HILL_SLOPE 1.27, PBLUC_R_SQUARED 0.271, read-out: LUCIFERASE INFECTION ASSAY - IC50): 6.95 µM
38 | Cc1ccc(-n2cccc2)c(NC(=O)c2c(-c3c(Cl)cccc3Cl)noc2C)c1 | > 7.74 µM | IC50 (PBLUC_HILL_SLOPE 1.2, PBLUC_R_SQUARED 0.354, read-out: LUCIFERASE INFECTION ASSAY - IC50): 4.14 µM
39 | COc1ccccc1CNC(=O)N/C=C/c1ccccc1Cl | > 10.4 µM | IC50 (PBLUC_HILL_SLOPE 1.23, PBLUC_R_SQUARED 0.697, read-out: LUCIFERASE INFECTION ASSAY - IC50): 5.38 µM
40 | Cc1ccc(-c2noc(-c3csc([C@@H]4C[C@H](O)[C@@H](CO)O4)n3)n2)cc1 | > 9.18 µM | IC50 (PBLUC_HILL_SLOPE 1.21, PBLUC_R_SQUARED 0.165, read-out: LUCIFERASE INFECTION ASSAY - IC50): 3.59 µM
41 | CN(C)C(=O)c1cccc(-c2cn3c(-c4ccc(C(C)(C)C)cc4)cnc3cn2)c1 | > 8.28 µM | IC50 (PBLUC_HILL_SLOPE 1.19, PBLUC_R_SQUARED 0.783, read-out: LUCIFERASE INFECTION ASSAY - IC50): 2.27 µM
